In ChEMBL document CHEMBL3301562, “MMV Box screening against Plasmodium falciparum protein kinases and aminoacyl tRNA synthetases”:

How the values were obtained:
Format in all cases: functional
[1] = biological target: T1, Cdk-related protein kinase 6 (Plasmodium falciparum, UniProt O77239); assay: Final concentrations were 1.5 uM ATP, 5 mM MnCl2, and 15 ug/ml PK6 in a buffer of 100 mM Tris-HCl (pH 7.5). 50 ug/mL MBP was provided as the substrate; 10 uM staurosporine was used as a control inhibitor. Incubation time was 3 hours and 40 minutes.The catalytic activity of each kinase was considered proportional to ATP consumed, as determined from measurements of residual [ATP] with the luciferase-based reagent Kinase-Glo (Promega) following incubation. Luminescence (proportional to residual [ATP]) was measured on the plate readers FLx800 (BioTek Instruments, Winooski, VT, USA) and MicroBeta2.
T1 sequence (O77239 whole entry): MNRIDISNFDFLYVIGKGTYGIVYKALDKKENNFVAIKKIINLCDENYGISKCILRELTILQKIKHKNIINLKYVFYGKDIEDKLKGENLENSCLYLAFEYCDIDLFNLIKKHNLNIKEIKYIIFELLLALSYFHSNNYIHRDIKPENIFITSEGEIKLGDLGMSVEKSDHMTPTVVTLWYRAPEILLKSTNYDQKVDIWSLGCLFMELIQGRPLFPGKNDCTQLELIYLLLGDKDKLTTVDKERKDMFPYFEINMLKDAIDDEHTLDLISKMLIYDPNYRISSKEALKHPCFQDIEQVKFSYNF

[2] = biological target: T2, Putative uncharacterized protein pk7 (Plasmodium falciparum, UniProt O96214); assay: Final concentrations were 1 uM ATP, 2 mM DTT, 20 mM MgCl2, 2 mM MnCl2, 0.01% BSA, and 6 ug/ml PK7, in a buffer of 20 mM Tris-HCl (pH 7.5). The enzyme itself was the only substrate present (since autophosphorylation occurs); 100 uM 1NA-PP1 was used as a control inhibitor. Incubation time was 3 hours.
T2 sequence (O96214 whole entry): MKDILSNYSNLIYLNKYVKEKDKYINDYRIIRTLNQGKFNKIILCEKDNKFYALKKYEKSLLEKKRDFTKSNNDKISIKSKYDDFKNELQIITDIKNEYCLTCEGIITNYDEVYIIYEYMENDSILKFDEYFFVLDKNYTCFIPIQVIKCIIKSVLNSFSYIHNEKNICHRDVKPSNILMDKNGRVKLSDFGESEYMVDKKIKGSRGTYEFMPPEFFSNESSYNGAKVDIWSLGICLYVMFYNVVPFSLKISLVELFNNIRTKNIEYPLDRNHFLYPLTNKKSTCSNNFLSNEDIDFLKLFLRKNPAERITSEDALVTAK

[3] = biological target: T3, Mitogen-activated protein kinase (Plasmodium falciparum, UniProt Q25917); assay: Final concentrations were 1 uM ATP, 0.5 mM DTT, 1 mM MgCl2, 0.5 mg/mL BSA, and 10 ug/ml MAP2 in a buffer of 50 mM HEPES (pH 7.0). 0.5 mg/mL histone III-S served as the substrate (13); 100 uM AMP-PNP, an ATP analog, was used as a control inhibitor. Incubation time was 4 hours.
T3 sequence (Q25917 whole entry): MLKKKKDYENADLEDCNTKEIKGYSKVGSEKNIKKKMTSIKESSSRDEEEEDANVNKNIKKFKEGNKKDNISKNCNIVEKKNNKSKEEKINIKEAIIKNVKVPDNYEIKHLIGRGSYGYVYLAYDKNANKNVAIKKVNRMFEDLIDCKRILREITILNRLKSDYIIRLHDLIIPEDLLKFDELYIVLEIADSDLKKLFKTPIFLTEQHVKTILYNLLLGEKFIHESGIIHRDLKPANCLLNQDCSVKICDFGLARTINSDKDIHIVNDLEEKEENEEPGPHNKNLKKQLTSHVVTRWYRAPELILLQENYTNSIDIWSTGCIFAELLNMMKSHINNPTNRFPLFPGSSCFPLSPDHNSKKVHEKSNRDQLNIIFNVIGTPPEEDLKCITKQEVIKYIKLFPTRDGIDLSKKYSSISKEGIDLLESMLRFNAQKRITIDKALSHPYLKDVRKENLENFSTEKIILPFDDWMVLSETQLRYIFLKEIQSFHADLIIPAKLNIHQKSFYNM

[4] = biological target: Calcium-dependent protein kinase 1 (Plasmodium falciparum, UniProt P62344); assay: MMV: CDPK1 Protein kinase inhibition assay using recombinant PfCDPK1, syntide 2 peptide substrate, ATP and KinaseGlo to measure % inhibition at 1 uM MMV box compound.
[5] = biological target: T4, Calcium-dependent protein kinase 4 (Plasmodium falciparum (isolate 3D7), UniProt Q8IBS5); assay: MMV: CDPK4 Protein kinase inhibition assay using recombinant PfCDPK4, syntide2 peptide substrate, ATP and KinaseGlo to measure % inhibition at 1 uM MMV box compound.
T4 sequence (Q8IBS5 whole entry): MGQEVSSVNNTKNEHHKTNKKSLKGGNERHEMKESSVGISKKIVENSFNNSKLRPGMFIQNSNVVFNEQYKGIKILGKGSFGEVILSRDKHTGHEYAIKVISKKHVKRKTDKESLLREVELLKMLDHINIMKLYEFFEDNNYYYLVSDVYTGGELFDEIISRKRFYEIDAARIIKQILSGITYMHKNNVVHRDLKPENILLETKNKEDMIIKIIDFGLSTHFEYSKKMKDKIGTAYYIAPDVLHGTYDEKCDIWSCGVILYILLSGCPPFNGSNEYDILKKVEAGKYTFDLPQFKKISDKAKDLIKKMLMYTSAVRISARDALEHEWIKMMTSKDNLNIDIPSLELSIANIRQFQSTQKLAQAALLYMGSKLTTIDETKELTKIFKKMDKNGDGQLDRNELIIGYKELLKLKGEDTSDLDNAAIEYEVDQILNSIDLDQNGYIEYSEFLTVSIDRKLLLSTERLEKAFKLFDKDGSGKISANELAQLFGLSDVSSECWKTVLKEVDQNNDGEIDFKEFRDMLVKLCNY

Proline--tRNA ligase = biological target: T5, Proline--tRNA ligase (Plasmodium falciparum (isolate 3D7), UniProt Q8I5R7); assay: MMV: ProRS recombinant Plasmodium falciparum Prolyl-tRNA-synthetase, assay with yeast tRNA, ATP, and proline and 3 uM MMV malaria box compound, assay read out with kinase glo as % inhibition.
T5 sequence (Q8I5R7 whole entry): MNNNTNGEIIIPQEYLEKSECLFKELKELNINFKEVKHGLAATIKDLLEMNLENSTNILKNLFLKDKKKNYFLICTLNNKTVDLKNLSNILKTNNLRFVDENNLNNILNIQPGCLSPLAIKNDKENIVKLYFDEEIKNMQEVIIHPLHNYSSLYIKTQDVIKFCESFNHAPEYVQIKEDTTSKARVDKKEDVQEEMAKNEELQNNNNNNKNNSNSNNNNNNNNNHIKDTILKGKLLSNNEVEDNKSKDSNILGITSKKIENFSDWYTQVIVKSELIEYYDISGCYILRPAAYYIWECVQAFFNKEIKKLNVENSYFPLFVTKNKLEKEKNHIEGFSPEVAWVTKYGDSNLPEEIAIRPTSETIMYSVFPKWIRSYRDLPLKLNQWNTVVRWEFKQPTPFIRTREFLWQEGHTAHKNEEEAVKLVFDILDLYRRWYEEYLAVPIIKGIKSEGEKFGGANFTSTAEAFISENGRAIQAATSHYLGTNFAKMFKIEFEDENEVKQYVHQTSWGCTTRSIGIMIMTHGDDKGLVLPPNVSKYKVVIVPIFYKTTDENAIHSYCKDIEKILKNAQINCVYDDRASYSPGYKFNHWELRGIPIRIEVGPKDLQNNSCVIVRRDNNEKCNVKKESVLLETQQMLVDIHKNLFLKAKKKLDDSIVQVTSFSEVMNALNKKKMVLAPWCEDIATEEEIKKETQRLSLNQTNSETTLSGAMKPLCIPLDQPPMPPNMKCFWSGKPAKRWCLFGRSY

Lysine--tRNA ligase = Lysine--tRNA ligase (Plasmodium falciparum (isolate 3D7), UniProt Q8IDJ8); assay: MMV: KRS recombinant Plasmodium falciparum Lysyl-tRNA-synthetase, assay with yeast tRNA, ATP, and lysine and 3 uM MMV malaria box compound, assay read out with kinase glo as % inhibition.
Sequence of Lysine--tRNA ligase (Q8IDJ8 whole entry): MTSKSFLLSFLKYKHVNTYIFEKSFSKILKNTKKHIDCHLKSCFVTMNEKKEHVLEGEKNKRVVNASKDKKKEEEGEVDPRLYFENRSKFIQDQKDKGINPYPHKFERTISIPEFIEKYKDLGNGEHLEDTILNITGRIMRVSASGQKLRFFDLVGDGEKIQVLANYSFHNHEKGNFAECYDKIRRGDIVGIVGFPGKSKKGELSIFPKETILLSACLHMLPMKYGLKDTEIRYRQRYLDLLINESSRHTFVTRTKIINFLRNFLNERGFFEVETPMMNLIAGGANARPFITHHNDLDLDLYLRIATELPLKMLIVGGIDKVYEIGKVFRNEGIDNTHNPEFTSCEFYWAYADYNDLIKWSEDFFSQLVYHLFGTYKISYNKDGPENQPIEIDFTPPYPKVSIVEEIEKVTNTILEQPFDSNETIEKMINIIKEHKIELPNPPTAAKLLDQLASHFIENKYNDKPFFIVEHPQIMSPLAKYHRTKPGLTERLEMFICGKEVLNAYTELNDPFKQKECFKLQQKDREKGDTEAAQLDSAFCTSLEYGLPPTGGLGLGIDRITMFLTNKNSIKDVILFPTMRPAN

Sequence of Calcium-dependent protein kinase 1 (P62344 whole entry): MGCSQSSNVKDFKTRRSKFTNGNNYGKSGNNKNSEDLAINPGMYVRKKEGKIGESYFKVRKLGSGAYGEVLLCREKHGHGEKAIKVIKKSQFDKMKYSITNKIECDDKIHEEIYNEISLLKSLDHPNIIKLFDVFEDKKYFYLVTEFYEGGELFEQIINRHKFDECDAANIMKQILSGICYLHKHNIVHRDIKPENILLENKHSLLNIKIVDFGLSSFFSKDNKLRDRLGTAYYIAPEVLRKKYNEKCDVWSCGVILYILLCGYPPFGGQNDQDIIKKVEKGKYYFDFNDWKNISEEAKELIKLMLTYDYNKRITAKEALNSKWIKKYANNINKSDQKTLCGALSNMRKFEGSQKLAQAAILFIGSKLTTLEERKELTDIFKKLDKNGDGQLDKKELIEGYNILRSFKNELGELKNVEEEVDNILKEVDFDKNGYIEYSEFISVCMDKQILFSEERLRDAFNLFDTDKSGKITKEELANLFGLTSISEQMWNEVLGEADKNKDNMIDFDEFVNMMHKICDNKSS

SMILES | IC50 [1] | IC50 [2] | IC50 [3] | IC50 [4] | IC50 [5] | IC50 (Proline--tRNA ligase) | IC50 (Lysine--tRNA ligase)
O=C1c2ccccc2-c2nnc(-c3ccc(Br)cc3)cc21 | > 1000 nM | > 1000 nM | > 1000 nM | > 1000 nM | > 1000 nM | > 2500 nM | > 2500 nM
CCOC(=O)C1=C(C)N=c2sc(=Cc3cc(Cl)ccc3O)c(=O)n2C1c1ccc(OC)cc1 (configuration not stated) | > 1000 nM | > 1000 nM | > 1000 nM | > 1000 nM | > 1000 nM | > 2500 nM | > 2500 nM
Cc1nc2ccccc2c(O)c1CC=C(Cl)Cl | > 1000 nM | > 1000 nM | > 1000 nM | > 1000 nM | > 1000 nM | > 2500 nM | > 2500 nM
CC(=O)c1ccc(NC(=O)CSc2nc(-c3ccccc3Cl)ns2)cc1 | > 1000 nM | > 1000 nM | > 1000 nM | > 1000 nM | > 1000 nM | > 2500 nM | > 2500 nM
O=C(NCCCN1CCC(N2CCCCC2)CC1)C1=Cc2cc(Br)ccc2OC1 | > 1000 nM | > 1000 nM | > 1000 nM | > 1000 nM | > 1000 nM | > 2500 nM | > 2500 nM
Cc1ccnc(NC(c2cccc(OCc3ccccc3)c2)c2ccc3cccnc3c2O)c1 (configuration not stated) | > 1000 nM | > 1000 nM | > 1000 nM | > 1000 nM | > 1000 nM | > 2500 nM | > 2500 nM
Cc1ccc(OCCCCCCNCCO)c(C)c1 | > 1000 nM | > 1000 nM | > 1000 nM | > 1000 nM | > 1000 nM | > 2500 nM | > 2500 nM
O=C1c2ccccc2C2=Nc3ccccc3SC(c3cccc(F)c3)C12 (configuration not stated) | > 1000 nM | > 1000 nM | > 1000 nM | > 1000 nM | > 1000 nM | > 2500 nM | > 2500 nM
Cc1ccccc1OCCSc1nc2ccc(NC(=O)c3ccccc3)cc2s1 | > 1000 nM | > 1000 nM | > 1000 nM | > 1000 nM | > 1000 nM | > 2500 nM | > 2500 nM
CC(C)(C)c1ccc(C(=O)Nc2c3c(nn2-c2cccc(Cl)c2)CSC3)cc1 | > 1000 nM | > 1000 nM | > 1000 nM | > 1000 nM | > 1000 nM | > 2500 nM | > 2500 nM
CCOC(=O)C1(Cc2ccccc2)CCN(Cc2cccc(OC)c2O)CC1 | > 1000 nM | > 1000 nM | > 1000 nM | > 1000 nM | > 1000 nM | > 2500 nM | > 2500 nM
Oc1ccc(C(=C(Cl)Cl)c2ccc(O)cc2)cc1 | > 1000 nM | > 1000 nM | > 1000 nM | > 1000 nM | > 1000 nM | > 2500 nM | > 2500 nM
CC(C)(C)c1ccc2c(c1)CN(Cc1ccc(Cl)cc1)CO2 | > 1000 nM | > 1000 nM | > 1000 nM | > 1000 nM | > 1000 nM | > 2500 nM | > 2500 nM
CCCCC(O)(c1ccc(Cl)cc1)C(CN1CCOCC1)c1ccc(Cl)cc1 (configuration not stated) | > 1000 nM | > 1000 nM | > 1000 nM | > 1000 nM | > 1000 nM | > 2500 nM | > 2500 nM
COc1ccc(OC)c(C2C3=C(CC(C)(C)CC3=O)N(c3ccc(Cl)c(Cl)c3)C3=C2C(=O)CC(C)(C)C3)c1 | > 1000 nM | > 1000 nM | > 1000 nM | > 1000 nM | > 1000 nM | > 2500 nM | > 2500 nM
Cc1cc(=O)oc2c1ccc1oc(C(=O)c3ccccc3)c(C)c12 | > 1000 nM | > 1000 nM | > 1000 nM | > 1000 nM | > 1000 nM | > 2500 nM | > 2500 nM
OC1CCCCC1C1(NC(=S)Nc2ccccc2)CCCCC1 (configuration not stated) | > 1000 nM | > 1000 nM | > 1000 nM | > 1000 nM | > 1000 nM | > 2500 nM | > 2500 nM
OC1=C2C(=Nc3ccccc3SC2c2ccc(Br)cc2)c2ccccc21 (configuration not stated) | > 1000 nM | > 1000 nM | > 1000 nM | > 1000 nM | > 1000 nM | > 2500 nM | > 2500 nM
COc1ccc(C)c2sc(N(Cc3cccnc3)C(=O)c3ccc(C#N)cc3)nc12 | > 1000 nM | > 1000 nM | > 1000 nM | > 1000 nM | > 1000 nM | > 2500 nM | > 2500 nM
CCCCCn1c(=N)n(CC(O)COc2cccc(C)c2)c2ccccc21 (configuration not stated) | > 1000 nM | > 1000 nM | > 1000 nM | > 1000 nM | > 1000 nM | > 2500 nM | > 2500 nM
Cc1ccc(S(=O)(=O)c2c(COC(=O)c3cccc(C)c3)c(-c3ccccc3)nn2C)cc1 | > 1000 nM | > 1000 nM | > 1000 nM | > 1000 nM | > 1000 nM | > 2500 nM | > 2500 nM
